Values of other authors in US20240197726A1, “NOVEL TETRAHYDROISOQUINOLINE ALKALOID COMPOUND CONTAINING MACROCYCLE” (THE UNIVERSITY OF TOKYO, priority 2021, published 2024).
Read-outs that look alike come from different tables or passages of the source.

How the values were obtained:
Conditions in all cases: cited from earlier work
[1] = test system: MCF-7 breast cancer cells
[2] = test system: MDA-MB-231 breast cancer cells
[3] = test system: HT-29 colorectal cancer cells
[4] = test system: HCT-116 colorectal cancer cells
[5] = test system: NCI-H23 lung cancer cells
[6] = test system: NCI-H460 lung cancer cells
A549 lung cancer cells = test system: A549 lung cancer cells
[7] = MCF-7 breast cancer cells, comparative value based on the literature, read-out: antitumor activity GI50 value: 50% growth inhibitory concentration
[8] = MDA-MB-231 breast cancer cells, comparative value based on the literature, read-out: antitumor activity GI50 value: 50% growth inhibitory concentration
[9] = HT-29 colorectal cancer cells, comparative value based on the literature, read-out: antitumor activity GI50 value: 50% growth inhibitory concentration
[10] = HCT-116 colorectal cancer cells, comparative value based on the literature, read-out: antitumor activity GI50 value: 50% growth inhibitory concentration
[11] = NCl-H23 lung cancer cells, comparative value based on the literature, read-out: antitumor activity GI50 value: 50% growth inhibitory concentration
[12] = NCl--H460 lung cancer cells, comparative value based on the literature, read-out: antitumor activity GI50 value: 50% growth inhibitory concentration
[13] = A549 lung cancer cells, comparative value based on the literature, read-out: antitumor activity GI50 value: 50% growth inhibitory concentration

Row | SMILES | GI50 [1, 7] [nM] | GI50 [2, 8] [nM] | GI50 [3, 9] [nM] | GI50 [4, 10] [nM] | GI50 [5, 11] [nM] | GI50 [6, 12] [nM] | GI50 (A549 lung cancer cells; [13]) [nM] | GI50 ([1]; MCF-7, reference values from literature (Leal et al. Br. J Pharmacol, 2010), listed as drawing 118, read-out: GI50 value: 50% growth inhibitory concentration) [nM] | GI50 ([1]; MCF-7, reference values from literature (Leal et al. Br. J Pharmacol, 2010), listed as drawing 142, read-out: GI50 value: 50% growth inhibitory concentration) [nM] | GI50 ([2]; MDA-MB-231, reference values from literature (Leal et al. Br. J Pharmacol, 2010), read-out: GI50 value: 50% growth inhibitory concentration) [nM] | GI50 ([3]; HT-29, reference values from literature (Leal et al. Br. J Pharmacol, 2010), read-out: GI50 value: 50% growth inhibitory concentration) [nM] | GI50 ([4]; HCT-116, reference values from literature (Leal et al. Br. J Pharmacol, 2010), read-out: GI50 value: 50% growth inhibitory concentration) [nM] | GI50 ([5]; NCI-H23, reference values from literature (Leal et al. Br. J Pharmacol, 2010), read-out: GI50 value: 50% growth inhibitory concentration) [nM] | GI50 ([6]; NCI-H460, reference values from literature (Leal et al. Br. J Pharmacol, 2010), read-out: GI50 value: 50% growth inhibitory concentration) [nM] | GI50 (A549 lung cancer cells; A549, reference values from literature (Leal et al. Br. J Pharmacol, 2010), read-out: GI50 value: 50% growth inhibitory concentration) [nM]
1 | COc1c(C)cc2c(c1C)[C@H]1N(C)[C@@](C)(C2)C(O)N2C1(C)[C@@H]1CCC3(NCCc4cc(C)c(C)cc43)C(=O)OC[C@@]2(C)c2c3c(c(C)c(C)c21)OCO3 (stereo partly shown) | 2.6 | 3.9 | 9.8 | 4.9 | 2.1 | 1.8 | 10.4 |  |  |  |  |  |  |  | 
2 | COc1c(C)cc2c(c1C)[C@H]1N(C)[C@@](C)(C2)C(C)N2C1(C)[C@@H]1CCC3(NCCc4cc(C)c(C)cc43)C(=O)OC[C@@]2(C)c2c3c(c(C)c(C)c21)OCO3 (stereo partly shown) | 2.6 | 3.9 | 9.8 | 4.9 | 2.1 | 1.8 | 10.4 |  |  |  |  |  |  |  | 
3 | COc1cc2c(cc1O)CCNC21CS[C@@H]2c3c(OC(C)=O)c(C)c4c(c3C(COC1=O)N1[C@@H]2[C@H]2c3c(cc(C)c(OC)c3O)C[C@@H]([C@@H]1O)N2C)OCO4 (stereo partly shown) [Ecteinascidin 743, reference compound] |  |  |  |  |  |  |  | 2.6 | 2.8 | 3.9 | 9.8 | 4.9 | 2.1 | 1.8 | 10.4
